Earlier results in patent publication US20090136558A1, “Anti-Restenosis Coatings and Uses Thereof” (VASOTECH, INC., priority 2004, published 2009).

Details: through specific binding to individual binding proteins

**Q.** Which “retention in blood vessel wall after releasing from stent” value does the source give for CO[C@H]1C[C@@H]2CC[C@@H](C)[C@@](O)(O2)C(=O)C(=O)N2CCCC[C@H]2C(=O)O[C@H]([C@H](C)C[C@@H]2CC[C@@H](O)[C@H](OC)C2)CC(=O)[C@H](C)/C=C(\C)[C@@H](O)[C@@H](OC)C(=O)[C@H](C)C[C@H](C)/C=C/C=C/C=C/1C [sirolimus, Sirolimus] here?
**A.** retained well in blood vessel wall for up to three days
